Reference: article PMC10783051 (Microbiology Spectrum, 2023)

Tested on: Streptomyces venezuelae ATCC 10712
Assay: Confrontation assay B. velezensis GA1 / S. venezuelae on REM plate, UPLC-MS metabolite profiling of the agar
Settings: gelified REM, 3 days at 26°C
Description: Confrontation assays were performed on square Petri dishes (12 × 12 cm) with 40 mL of REM solid medium at 26°C (REM supplemented with 14 g/L of agar).
S. venezuelae ATCC 10712 was inoculated as stripes (1 × 12 cm) in the middle of the plate with 40 µL of spore suspension (10^7 spores/mL) and spread with a cotton swab. Next, B. velezensis GA1 cells were collected from fresh precultures as described and adjusted to OD600 nm 0.1. Then, 5 µL of B. velezensis GA1 suspension was spotted at 1 cm of the Streptomyces line. Control plates were done following the same procedure without the inoculation of either Bacillus or Streptomyces. Plates were then incubated for 3 days at 26°C in the dark. Pictures of the plates were then captured using a CoolPix camera (NIKKOR ×60 wide optical zoom extra-low dispersion vibration reduction 4.3–258.0 mm 1:33 to 6.5).
The extraction of the metabolites from the agar was performed as follows. For the confrontation experiment, we precisely sampled the area of agar (2 × 1 cm) near the colony of Bacillus or Streptomyces (the confrontation zone is 1 cm wide) with standardized plugs. For the in planta, we sampled the agar area (1 × 1 cm) near the tomato roots. In both cases, the agar samples were transferred to Eppendorf tubes and placed for 24 h at −20°C. Then, the agar was thawed at room temperature and centrifuged for 10 min at 13,000 rpm. The supernatants were then collected and filtered (0.22-µm pore size filters) before UPLC-MS analysis.
All UPLC-MS analyses were performed using an Agilent 1290 Infinity II coupled with a diode array detector and a mass detector (Jet Stream ESI-Q-TOF 6530) in positive mode with the parameters set up as follows: capillary voltage of 3.5 kV, nebulizer pressure of 35 lb/in^2, drying gas of 8 L/min, drying gas temperature of 300°C, flow rate of sheath gas of 11 L/min, sheath gas temperature of 350°C, fragmentor voltage of 175 V, skimmer voltage of 65 V, and octopole radiofrequency of 750 V. Accurate mass spectra were recorded in the m/z range of 300–1,700. For untargeted MS/MS, we used the same MS1 parameters as described. We added MS2 untargeted acquisition mode with the parameters as follows: MS/MS range 50–1,700 m/z; MS/MS scan rate 3 spectra/s; isolation width MS/MS medium (approx. 4 AMU), Decision Engine Native; fixed collision energies of 25 and 40 V for surfactin, 50 V for iturin, and 60 V for fengycin experiments; precursor selection: three for the surfactin experiment, four for the iturin and fengycin experiments, threshold 1,500 (Abs), isotope model common, active exclusion after two spectra and release after 0.5 min, sorting the precursors by charge state then abundance (charge state preference 1). For targeted MS/MS, we used the same MS1 parameters MS/MS range of 50–1,700 m/z or 50–3,200 (when required for Pseudomonas CLPs with mass >1,700 Da), MS/MS scan rate 3 spectra/s, isolation width MS/MS narrow (approx. 1.3 amu), and fixed collision energies 20, 40, and 60V. In all experiments, a C18 Acquity UPLC ethylene bridged hybrid column (2.1 mm × 50 mm × 1.7 µm; Waters Corporation, Milford, MA, USA) was used at a flow rate of 0.6 mL/min and a temperature of 40°C. The injection volume was 20 µL, and the diode array detector scanned a wavelength spectrum between 190 and 600 nm. Unless otherwise mentioned, a gradient of acidified water (0.1% formic acid) (solvent A) and of acidified acetonitrile (0.1% formic acid) (solvent B) was used as mobile phase with a constant flow rate of 0.6 mL/min, starting at 10% B and rising to 100% B in 20 min. Solvent B was kept at 100% for 4 min before going back to the initial ratio. MassHunter Workstation (version 10.0) and ChemStation software were used for data collection and analysis. For untargeted analysis of iturin and fengycin degradation products, we used the same solvent and flow rate, starting at 10% B to 20% in 2 min, then rising to 50% B at 14 min and 100% B at 25 min, followed by 100% B and 5 at 10% B at 6 min.

iturin
shorter CLP fragment detected in the confrontation zone but not in Bv monoculture (UPLC-MS, MS/MS): loss of asparagine in position 3 | abundance of the CLP in the confrontation zone compared with monocultures (agar extract of confrontation zone, UPLC-Q-TOF-MS peak areas, three biological replicates): decrease in the abundance
